Test results published in article PMC7489219 (Molecular Brain, 2020).
Structures can show the parent of a compound that is named as a salt.

What follows are molecules tested against T1, GluN2B (Homo sapiens, UniProt Q05586+Q13224) (assay: automated patch clamp of HEK293 cells stably expressing human GluN1/GluN2B). Settings: not given.
T1 construct: gene GRIN2B; with GluN1 (Q05586)
T1 sequence (Q13224 27-1484, other chains not shown): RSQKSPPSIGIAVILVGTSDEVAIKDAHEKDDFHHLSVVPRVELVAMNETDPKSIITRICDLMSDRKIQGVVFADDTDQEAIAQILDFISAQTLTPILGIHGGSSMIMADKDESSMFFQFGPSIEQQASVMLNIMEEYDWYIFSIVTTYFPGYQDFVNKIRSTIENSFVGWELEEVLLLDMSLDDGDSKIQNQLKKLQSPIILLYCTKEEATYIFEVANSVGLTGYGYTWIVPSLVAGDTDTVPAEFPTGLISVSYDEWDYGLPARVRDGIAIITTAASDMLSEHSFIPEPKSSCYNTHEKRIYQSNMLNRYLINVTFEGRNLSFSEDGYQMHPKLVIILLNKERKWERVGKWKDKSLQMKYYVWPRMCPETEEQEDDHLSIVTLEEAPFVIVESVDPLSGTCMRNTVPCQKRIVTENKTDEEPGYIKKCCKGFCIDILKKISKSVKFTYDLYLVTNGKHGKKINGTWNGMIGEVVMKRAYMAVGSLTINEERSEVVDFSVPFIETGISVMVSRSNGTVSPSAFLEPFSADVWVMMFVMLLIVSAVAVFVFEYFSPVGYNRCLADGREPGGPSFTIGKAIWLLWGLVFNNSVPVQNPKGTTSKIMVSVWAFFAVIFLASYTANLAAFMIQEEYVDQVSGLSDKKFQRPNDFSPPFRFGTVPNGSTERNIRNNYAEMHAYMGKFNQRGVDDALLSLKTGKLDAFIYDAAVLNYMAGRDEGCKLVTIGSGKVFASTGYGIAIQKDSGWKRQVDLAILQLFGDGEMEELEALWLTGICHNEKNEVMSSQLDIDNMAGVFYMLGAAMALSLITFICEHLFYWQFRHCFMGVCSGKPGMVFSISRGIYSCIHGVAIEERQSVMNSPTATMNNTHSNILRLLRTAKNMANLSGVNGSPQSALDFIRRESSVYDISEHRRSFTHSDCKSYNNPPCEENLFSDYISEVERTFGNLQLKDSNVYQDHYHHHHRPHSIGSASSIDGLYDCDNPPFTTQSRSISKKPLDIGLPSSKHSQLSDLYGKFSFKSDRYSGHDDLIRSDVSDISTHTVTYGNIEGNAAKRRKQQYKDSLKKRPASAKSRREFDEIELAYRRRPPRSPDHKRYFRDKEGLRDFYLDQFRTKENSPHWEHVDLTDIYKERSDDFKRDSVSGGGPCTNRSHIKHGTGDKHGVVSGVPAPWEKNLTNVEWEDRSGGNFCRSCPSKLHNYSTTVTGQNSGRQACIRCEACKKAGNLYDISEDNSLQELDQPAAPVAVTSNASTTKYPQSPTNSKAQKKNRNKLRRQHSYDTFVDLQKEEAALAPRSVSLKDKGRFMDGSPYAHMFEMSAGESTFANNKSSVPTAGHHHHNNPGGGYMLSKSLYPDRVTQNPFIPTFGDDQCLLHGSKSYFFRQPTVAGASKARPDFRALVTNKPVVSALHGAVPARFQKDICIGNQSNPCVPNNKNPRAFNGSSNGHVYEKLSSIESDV
Format: cell-based
In the case of `N[C@H](CCCP(=O)(O)O)C(=O)O` [D-APV], the IC50 is reported as 1.14 µM.

The molecules below were run on T2, primary mouse cortical neurons (assay: cells). Settings: Cortical neurone, 20 h, read-out: % inhibition, inhibition of NMDA-induced cell death (protection score), 30 min pre-treatment.
T2 construct: primary cortical neurons, DIV 10
Parameters: Protection from NMDA-induced (30 uM, 10 min) neuronal death; Hoechst nuclear morphology by automated microscopy
Summary of the method: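 On DIV 10, primary mouse cortical neurons were given compound at 10 μM for 30 min at 37 °C, then 30 μM NMDA for 10 min, washed, and kept 20 h with compound. Dead cells were scored by nuclear morphology, and % protection was derived from survival relative to vehicle + NMDA and untreated controls.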
Molecule `CCCc1nc(C)c2c(=O)nc(-c3cc(S(=O)(=O)N4CCN(CC)CC4)ccc3OCC)[nH]n12` [Vardenafil (Vivanza)] has an inhibition at 10 µM of -5.64%. Molecule `COc1ccc(C(CN(C)C)C2(O)CCCCC2)cc1` (stereo not drawn) [Venlafaxine] has an inhibition at 10 µM of 22.6%. Work on `COC[C@@H](c1ccc(C(F)(F)F)cc1)N1CCN(C2(C)CCN(C(=O)c3c(C)ncnc3C)CC2)C[C@@H]1C` [Vicriviroc Malate] yielded an inhibition at 10 µM of 0.113%. `Nc1ncnc2c1ncn2[C@@H]1O[C@H](CO)[C@@H](O)[C@@H]1O` [Vidarabine (Vira-A)] was tested, and the inhibition at 10 µM was 20.1%. `CC[C@]1(O)C[C@H]2CN(CCc3c([nH]c4ccccc34)[C@@](C(=O)OC)(c3cc4c(cc3OC)N(C=O)[C@H]3[C@@](O)(C(=O)OC)[C@H](OC(C)=O)[C@]5(CC)C=CCN6CC[C@]43[C@@H]65)C2)C1` [Vincristine] showed an inhibition at 10 µM of -7.5%. In the case of `CCC1=C[C@@H]2CN(C1)Cc1c([nH]c3ccccc13)[C@@](C(=O)OC)(c1cc3c(cc1OC)N(C)[C@H]1[C@@](O)(C(=O)OC)[C@H](OC(C)=O)[C@]4(CC)C=CCN5CC[C@]31[C@@H]54)C2` [Vinorelbine (Navelbine)], the inhibition at 10 µM is reported as -1.98%. For `C[C@@H](c1ncncc1F)[C@](O)(Cn1cncn1)c1ccc(F)cc1F` [Voriconazole], the inhibition at 10 µM was 17.5%. In the case of `O=c1c2ccccc2oc2ccccc12` [Xanthone (Genicide)], the inhibition at 10 µM is reported as 7.85%. `COC(=O)[C@@H]1[C@H]2C[C@H]3c4[nH]c5ccccc5c4CCN3C[C@@H]2CC[C@@H]1O` [Yohimbine hydrochloride (Antagonil)] was tested, and the inhibition at 10 µM was 7.7%. `Nc1ccn([C@H]2CC[C@@H](CO)O2)c(=O)n1` [Zalcitabine] was tested, and the inhibition at 10 µM was 3.28%. In the case of `CC(c1cc2ccccc2s1)N(O)C(N)=O` (stereo not drawn) [Zileuton], the inhibition at 10 µM is reported as -10.2%. Work on `O=C1Cc2cc(CCN3CCN(c4nsc5ccccc45)CC3)c(Cl)cc2N1` [Ziprasidone hydrochloride] yielded an inhibition at 10 µM of 8.38%. For `O=P(O)(O)C(O)(Cn1ccnc1)P(=O)(O)O` [Zoledronic Acid (Zoledronate)], the inhibition at 10 µM was -0.211%. For `CN(C)CCc1c[nH]c2ccc(C[C@H]3COC(=O)N3)cc12` [Zolmitriptan (Zomig)], the inhibition at 10 µM was 41.2%. For `NS(=O)(=O)Cc1noc2ccccc12` [Zonisamide], the inhibition at 10 µM was -5.91%. In the case of `CC[C@H](CC[C@@H](C)[C@H]1CC[C@H]2[C@@H]3CC=C4C[C@@H](O)CC[C@]4(C)[C@H]3CC[C@]12C)C(C)C` [β-Sitosterol], the inhibition at 10 µM is reported as -0.368%.

These molecules were tested against T3, GluN2A (Homo sapiens, UniProt Q05586+Q12879) (assay: not given). Settings: not given.
T3 construct: gene GRIN2A
T3 sequence (Q12879 23-1464, other chains not shown): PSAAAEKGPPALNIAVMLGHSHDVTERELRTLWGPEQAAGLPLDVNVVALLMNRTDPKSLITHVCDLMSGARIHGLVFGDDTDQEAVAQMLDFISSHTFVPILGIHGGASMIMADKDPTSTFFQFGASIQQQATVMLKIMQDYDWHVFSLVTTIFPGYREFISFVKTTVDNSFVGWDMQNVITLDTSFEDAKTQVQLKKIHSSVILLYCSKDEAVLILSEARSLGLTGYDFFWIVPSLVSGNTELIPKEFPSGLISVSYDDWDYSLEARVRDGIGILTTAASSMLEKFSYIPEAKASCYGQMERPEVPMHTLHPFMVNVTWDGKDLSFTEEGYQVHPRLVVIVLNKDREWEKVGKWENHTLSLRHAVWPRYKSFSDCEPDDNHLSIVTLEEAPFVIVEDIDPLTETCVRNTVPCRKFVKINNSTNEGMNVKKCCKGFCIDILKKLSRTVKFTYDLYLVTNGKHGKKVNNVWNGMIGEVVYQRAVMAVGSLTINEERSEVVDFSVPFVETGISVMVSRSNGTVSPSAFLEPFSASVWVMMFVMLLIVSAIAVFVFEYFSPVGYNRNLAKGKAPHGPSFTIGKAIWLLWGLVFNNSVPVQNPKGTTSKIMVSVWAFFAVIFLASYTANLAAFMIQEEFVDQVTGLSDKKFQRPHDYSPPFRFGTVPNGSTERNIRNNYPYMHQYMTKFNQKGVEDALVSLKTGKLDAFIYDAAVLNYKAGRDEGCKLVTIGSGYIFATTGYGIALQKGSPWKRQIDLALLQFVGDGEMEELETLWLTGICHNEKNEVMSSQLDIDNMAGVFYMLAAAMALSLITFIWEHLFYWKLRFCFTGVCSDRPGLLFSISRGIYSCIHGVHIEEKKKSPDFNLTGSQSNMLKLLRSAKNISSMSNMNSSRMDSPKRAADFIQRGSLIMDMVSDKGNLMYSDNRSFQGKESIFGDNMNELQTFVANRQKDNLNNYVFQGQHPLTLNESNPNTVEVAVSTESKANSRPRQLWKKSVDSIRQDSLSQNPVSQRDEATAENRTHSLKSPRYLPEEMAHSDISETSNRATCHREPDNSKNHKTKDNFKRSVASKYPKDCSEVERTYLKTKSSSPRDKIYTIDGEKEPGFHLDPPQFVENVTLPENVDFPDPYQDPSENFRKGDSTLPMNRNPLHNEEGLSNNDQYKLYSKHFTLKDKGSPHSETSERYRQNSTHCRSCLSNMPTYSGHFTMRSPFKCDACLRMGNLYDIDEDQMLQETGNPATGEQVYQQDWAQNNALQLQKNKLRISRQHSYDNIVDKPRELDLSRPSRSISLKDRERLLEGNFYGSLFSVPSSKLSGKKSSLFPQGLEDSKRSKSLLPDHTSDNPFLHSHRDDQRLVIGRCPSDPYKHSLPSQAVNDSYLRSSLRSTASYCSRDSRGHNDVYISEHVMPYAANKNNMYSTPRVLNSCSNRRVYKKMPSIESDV
`N[C@H](CCCP(=O)(O)O)C(=O)O` [D-APV] was tested, and the IC50 was 1.48 µM.
